One assay addresses T1, PI3K alpha (Homo sapiens, UniProt P42336).
T1 construct: p85(iSH2) fusion partner (see partner chain) (N); His tag (C); made in house; host or cells: baculovirus; Tn5 (Trichoplusia ni) or TiniPro insect cells
In words: PI3K alpha kinase assay (Kinase-Glo luminescence). It is filed as biochemical. As to the method: In a more preferred assay, the kinase reaction is performed in a final volume of 10 μL per well of a low volume non binding CORNING, 384 well black plate (Cat. No. #3676). The final concentrations of ATP and phosphatidyl inositol (PI) in the assay are 1 μM and 10 μg/mL respectively. The reaction is started by the addition of ATP.
The components of the assay are added per well as follows:
[…] in 90% DMSO per well, in columns 1-20, 8 concentrations (1/3 and 1/3.33 serial dilution step) in single. • Low control: […] of 90% DMSO in half the wells of columns 23-24 (0.45% in final). • High control: […] of reference compound (e.g. compound of Example 7 in WO 2006/122806) in the other half of columns 23-24 (2.5 μM in final). • Standard: […] of reference compound as just mentioned diluted as the test compounds in columns 21-22 • 20 mL ‘buffer’ are prepared per assay: • 200 μL of 1M TRIS HCl pH7.5 (10 mM in final) • 60 μL of 1M MgCl2 (3 mM in final) • 500 μL of 2M NaCl (50 mM in final) • 100 μL of 10% CHAPS (0.05% in final) • 200 μL of 100 mM DTT (1 mM in final) • 18.94 mL of nanopure water • 10 mL ‘PI’ are prepared per assay: • 200 μL of 1 mg/ml L-alpha-Phosphatidylinositol (Liver Bovine, Avanti Polar Lipids Cat. No. 840042C MW=909.12) prepared in 3% OctylGlucoside (10 μg/ml in final) • 9.8 mL of ‘buffer’ • 10 mL ‘ATP’ are prepared per assay: • 6.7 μL of 3 mM stock of ATP giving a final concentration of 1 μM per well • 10 mL of ‘buffer’ • 2.5 mL of each PI3K construct are prepared per assay in ‘PI’ with the following final concentration: • 10 nM PI3K alfa EMV B1075 • 25 nM beta EMV BV949 • 10 nM delta EMV BV1060 • 150 nM gamma EMV BV950 • 5 μL of ‘PI/PI3K’ are added per well. • 5 μl ‘ATP’ are added per well to start the reaction. • The plates are then incubated at room temperature for 60 minutes (alfa, beta, delta) or 120 minutes (gamma). • The reaction is terminated by the addition of 10 μL Kinase-Glo (Promega Cat. No. #6714). • The assay plates are read after 10 minutes in Synergy 2 reader (BioTek, Vermont USA) with an integration time of 100 milliseconds and sensitivity set to 191. • Output: The High control is around 60'000 counts and the Low control is 30'000 or lower • This luminescence assay gives a useful Z′ ratio between 0.4 and 0.7
Two different constructs, BV 1052 and BV 1075, are used to generate the PI3 Kinase a proteins for compound screening.
IC50 is determined by a four parameter curve fitting routine that comes along with “excel fit”. […] Alternatively, IC50 values are calculated using idbsXLfit model 204, which is a 4 parameter logistic model.
In general terms: Kinase-Glo measures the ATP left after a reaction by luminescence.

For the next assay, the target named is T2, mTOR (Homo sapiens, UniProt P42345).
T2 construct: purchased Invitrogen Corporation (Carlsbad/CA, USA) PV4753
T2 sequence (P42345 1360-2549 limits assumed): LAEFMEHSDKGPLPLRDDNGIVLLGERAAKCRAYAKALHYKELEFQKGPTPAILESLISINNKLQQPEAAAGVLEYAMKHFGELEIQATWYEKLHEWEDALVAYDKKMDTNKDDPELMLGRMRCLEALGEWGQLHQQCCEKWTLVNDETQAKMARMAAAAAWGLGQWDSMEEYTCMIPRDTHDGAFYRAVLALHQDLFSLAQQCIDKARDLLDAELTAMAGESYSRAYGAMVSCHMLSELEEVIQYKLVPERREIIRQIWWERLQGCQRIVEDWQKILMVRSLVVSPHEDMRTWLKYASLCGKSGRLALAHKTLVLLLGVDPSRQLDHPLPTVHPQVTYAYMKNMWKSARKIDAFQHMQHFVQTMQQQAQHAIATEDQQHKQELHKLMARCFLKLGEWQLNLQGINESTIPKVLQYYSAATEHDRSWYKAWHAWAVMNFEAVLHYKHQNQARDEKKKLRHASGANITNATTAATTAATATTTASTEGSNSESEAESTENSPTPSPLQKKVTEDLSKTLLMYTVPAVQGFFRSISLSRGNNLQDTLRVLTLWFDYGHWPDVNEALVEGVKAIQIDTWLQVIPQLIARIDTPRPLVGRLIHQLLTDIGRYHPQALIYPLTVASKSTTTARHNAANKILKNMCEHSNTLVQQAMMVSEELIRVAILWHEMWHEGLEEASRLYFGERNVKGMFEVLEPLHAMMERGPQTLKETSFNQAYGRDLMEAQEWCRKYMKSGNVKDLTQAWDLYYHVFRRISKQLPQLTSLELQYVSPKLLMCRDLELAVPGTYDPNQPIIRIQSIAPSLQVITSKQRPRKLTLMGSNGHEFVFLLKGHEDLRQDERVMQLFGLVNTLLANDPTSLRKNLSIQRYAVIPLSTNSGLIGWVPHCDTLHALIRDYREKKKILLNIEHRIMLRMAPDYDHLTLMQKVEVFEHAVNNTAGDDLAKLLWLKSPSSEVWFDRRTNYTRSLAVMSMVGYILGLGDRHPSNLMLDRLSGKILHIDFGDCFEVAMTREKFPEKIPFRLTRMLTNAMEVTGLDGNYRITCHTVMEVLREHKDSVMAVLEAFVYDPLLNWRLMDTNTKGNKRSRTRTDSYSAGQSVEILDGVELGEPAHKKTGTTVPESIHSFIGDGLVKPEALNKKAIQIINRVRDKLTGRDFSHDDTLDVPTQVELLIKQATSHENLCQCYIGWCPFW
In words: Biochemical assay for m-TOR by TR-FRET. The conditions noted are these: 8 μM ATP, 400 nM GFP-4EBP1, 0.5 nM mTOR. As to the method:
Biochemical Assay for m-TOR by TR-FRET.
Assay components are purchased from Invitrogen Corporation (Carlsbad/CA, USA): GFP-4EBP1 (Cat. No. PV4759), Tb3+-α-p4EBP1 [pThr46] Antibody (Cat. No. PV4757), proprietary TR-FRET dilution buffer (Cat. No. PV3574), mTOR protein (Cat. No. PV4753).
Then 5 μL of ATP (8 μM final concentration) and GFP-4EBP1 (400 nM final concentration) with 5 μL mTOR proteins (0.5 nM final concentration) are incubated at rt. The standard reaction buffer for the TR-FRET mTOR assay contained 50 mM HEPES pH 7.5, 10 mM MnCl2, 50 mM NaCl, 1 mM EGTA, 1 mM DTT. Reactions were stopped with 10 μL of a mixture of EDTA containing the Tb3+-α-p4EBP1-[pT46] detection Ab (0.5 nM) in TR-FRET dilution buffer (proprietary to IVG). Plates are read 15 mins later in a Synergy2 reader using an integration time of 0.2 seconds and a delay of 0.1 seconds. […] A standard compound is used as a reference compound and included in all assay plates in the form of 16 dilution points in duplicate.
(In general: In TR-FRET formats the signal depends on donor and acceptor labels being close together.)

Assay [1] has as its system PKB Ser473 phosphorylation in Rat1-myr-HA-p110 delta cells. In words: Reverse protein array assay, PKB Ser473 phosphorylation in Rat1-myr-p110 delta cells. Conditions: read-out: p-PKB IC50. In kind it is cell-based. As to the method: (§1) The Rat1-myr-HA-p110 alpha, beta and delta cells were trypsinized and counted with a CASY TT cell counter (Schärfe System GmbH, Reutlingen Germany). […] The plates were incubated at 37° C. and 5% CO2 under humidified condition for at least 20 h. Compound of formula I working solutions were prepared freshly as serial 8 step dilutions (vol/vol) in DMSO on the day of the experiment. […] The final DMSO concentration was kept constant at 0.2%. cell culture medium containing 0.2% DMSO was used as vehicle treatment control. Post incubation, the cells were treated with the serial compound dilution. 50 μl of the compound medium mixture was added to the wells containing cells and 150 μl DMEM medium and incubated for 30 minutes (37° C., 5% CO2). After 30 minutes of incubation, the medium mixture was quickly removed by aspiration. […] 50 μl of the described lysis buffer mix was added to each well, followed by 10 minutes of incubation on ice.
(§2) The samples were spotted onto ZeptoMARKt PWG protein microarray chips (Zeptosens, Witterswil, Switzerland) with the piezoelectric microdispense-based, non-contact Nano-Plotter 2.1 (GeSiM, Grosserkmannsdorf, Germany). Each sample was spotted at 4 different sample concentrations (d1=100%, d2=75%, d3=50%, d4=25%) by diluting the cell lysate with the corresponding volume of lysis buffer mix. After spotting the ZeptoMARK® protein microarrays, the chips are incubated for 1 hour at 37° C. […] After 20 minutes of blocking the chips are extensively rinsed with deionized water (Milli-Q quality, 18MΩ×cm) and dried in a nitrogen air flow.
(§3) After incubation, the arrays were washed twice with 200 μl CAB1 buffer. […] The fluorescence signal was assessed with exposure times of 1, 3, 5 and 10 seconds, depending on the intensity of the signal. The resulting four images taken per array are stored as 16-bit TIF files.
(§4) The fluorescence images for each array were analyzed with the ZeptoVIEW Pro 2.0 software (Zeptosens, Witterswil, Switzerland) and the relative fluorescence intensity for each signal was calculated.

The subject of assay [2] is PKB Ser473 phosphorylation in Rat1-myr-HA-p110 alpha cells. In words: Reverse protein array assay, PKB Ser473 phosphorylation in Rat1-myr-p110 alpha cells. In kind it is cell-based. Conditions: 0.5 h, pAkt Ser473, 30 minutes compound incubation, read-out: p-PKB IC50. As for the experimental part:
as §1, §2, §3, §4

Assay [3] has as its system PKB Ser473 phosphorylation in Rat1-myr-HA-p110 beta cells. In words: Reverse protein array assay, PKB Ser473 phosphorylation in Rat1-myr-p110 beta cells. In kind it is cell-based. The conditions noted are these: 0.5 h, pAkt Ser473, 30 minutes incubation, read-out: p-PKB IC50. As to the method: as §1, §2, §3, §4
The test system of assay [4] is S6 Ribosomal Protein phosphorylation Ser235/236 in TSC1 null mouse embryo fibroblast (MEF) cells. In words: Reverse protein array assay, S6 Ribosomal Protein phosphorylation Ser235/236 in TSC1 null MEF cells. In kind it is cell-based. The conditions noted are these: 1 h, pS6 ribosomal protein Ser235/236, 60 minutes incubation, read-out: p-S6 IC50. As to the method:
as §1, with “TSC1−/−” for “Rat1-myr-HA-p110 alpha, beta and delta”, “(Schirfe” for “(Schärfe”, “Working” for “Compound of formula I working”, “0.02%.” for “0.2%.”, “0.02%” for “0.2%”, “60” for “30”
The spotting of the chips follows the previous described method.

A value given as a limit tells only on which side of the number the result lay.

T1 sequence (P42336 with tags, fused parts or gaps limits assumed): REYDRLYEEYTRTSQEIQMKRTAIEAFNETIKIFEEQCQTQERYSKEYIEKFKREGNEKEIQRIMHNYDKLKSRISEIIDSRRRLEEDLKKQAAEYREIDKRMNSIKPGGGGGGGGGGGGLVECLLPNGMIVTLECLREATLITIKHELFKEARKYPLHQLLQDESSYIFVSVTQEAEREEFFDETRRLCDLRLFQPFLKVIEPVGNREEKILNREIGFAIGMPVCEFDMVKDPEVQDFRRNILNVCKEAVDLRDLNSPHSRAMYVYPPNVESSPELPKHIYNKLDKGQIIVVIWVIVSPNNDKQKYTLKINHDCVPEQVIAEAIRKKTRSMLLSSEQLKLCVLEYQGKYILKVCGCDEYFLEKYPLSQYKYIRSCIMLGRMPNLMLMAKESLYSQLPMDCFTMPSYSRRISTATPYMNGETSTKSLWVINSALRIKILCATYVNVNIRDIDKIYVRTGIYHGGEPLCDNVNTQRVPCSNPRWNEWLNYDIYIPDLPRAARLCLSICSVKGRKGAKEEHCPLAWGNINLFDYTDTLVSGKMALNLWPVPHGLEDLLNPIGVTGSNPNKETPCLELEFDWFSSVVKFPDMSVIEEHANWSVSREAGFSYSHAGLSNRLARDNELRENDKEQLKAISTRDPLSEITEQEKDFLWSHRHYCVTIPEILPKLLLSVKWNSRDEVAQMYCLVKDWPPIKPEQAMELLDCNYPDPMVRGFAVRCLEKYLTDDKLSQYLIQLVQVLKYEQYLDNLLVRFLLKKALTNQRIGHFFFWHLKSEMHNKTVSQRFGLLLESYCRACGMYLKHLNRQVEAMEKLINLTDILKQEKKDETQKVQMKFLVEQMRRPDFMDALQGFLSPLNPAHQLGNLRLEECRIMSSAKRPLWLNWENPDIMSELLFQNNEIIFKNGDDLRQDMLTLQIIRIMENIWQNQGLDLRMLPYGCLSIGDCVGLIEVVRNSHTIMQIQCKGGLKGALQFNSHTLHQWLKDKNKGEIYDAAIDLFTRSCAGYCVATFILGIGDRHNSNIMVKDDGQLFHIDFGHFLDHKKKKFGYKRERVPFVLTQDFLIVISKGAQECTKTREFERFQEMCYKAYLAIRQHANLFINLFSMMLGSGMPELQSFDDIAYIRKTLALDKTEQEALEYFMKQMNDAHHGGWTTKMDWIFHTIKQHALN

One may read the IC50 as the concentration at which inhibition is half-maximal. With `CCN(C)C(=O)Cn1cc(-n2c(=O)n(C)c3cnc4ccc(-c5ccc(-n6cccn6)cc5)cc4c32)c(C)n1` [Example 51.6, N-Ethyl-N-methyl-2-{3-methyl-4-[3-methyl-2-oxo-8-(4-pyrazol-1-yl-phenyl)-2,3-dihydro-imidazo[4,5-c]quinolin-1-yl]pyrazol-1-yl}-acetamide], the IC50 on PI3K alpha was 61 nM; on mTOR, 27 nM; in assay [1] it was 15 nM; in assay [2], 12 nM; in assay [3] it was 12 nM; in assay [4], under 0.5 nM.
`COCc1ncc(-c2ccc3ncc4c(c3c2)n(-c2cn(C)nc2Cl)c(=O)n4C)cc1OC` [Example 195.4, 1-(3-Chloro-1-methyl-1H-pyrazol-4-yl)-8-(5-methoxy-6-methoxymethyl-pyridin-3-yl)-3-methyl-1,3-dihydro-imidazo[4,5-c]quinolin-2-one]: the IC50 turned out to be 8 nM on mTOR; 21 nM in assay [1]; 20 nM in assay [2]; 23 nM in assay [3]; 2 nM in assay [4].
Regarding `Cc1nn(CC(=O)N2CCCC2)cc1-n1c(=O)n(C)c2cnc3ccc(-c4cnc(N5CCCC5)nc4)cc3c21` [Example 247.4, 3-Methyl-1-[3-methyl-1-(2-oxo-2-pyrrolidin-1-yl-ethyl)-1H-pyrazol-4-yl)-8-(2-pyrrolidin-1-yl-pyrimidin-5-yl)-1,3-dihydro-imidazo[4,5-c]quinolin-2-one], the IC50 at mTOR was found to be 34 nM; in assay [1], 106 nM; in assay [2], 44 nM; in assay [3], 41 nM; in assay [4], 4 nM.
Turning to `COc1ccc(-c2ccc3ncc4c(c3c2)n(-c2cnn(C)c2C)c(=O)n4C)cc1OC` [Example 1.1, 8-(3,4-Dimethoxy-phenyl)-1-(1,5-dimethyl-1H-pyrazol-4-yl)-3-methyl-1,3-dihydro-imidazo[4,5-c]quinolin-2-one], the IC50 stood at 81 nM in assay [1], 22 nM in assay [2], 66 nM in assay [3] and 4 nM in assay [4].
With `CCn1cc(-n2c(=O)n(C)c3cnc4ccc(-c5ccc(-n6cccn6)cc5)cc4c32)c(C)n1` [Example 51.3, 1-(1-Ethyl-3-methyl-1H-pyrazol-4-yl)-3-methyl-8-(4-pyrazol-1-yl-phenyl)-1,3-dihydro-imidazo[4,5-c]quinolin-2-one], the IC50 amounted to 6 nM at mTOR; 15 nM in assay [1]; 8 nM in assay [2]; 9 nM in assay [3]; 2 nM in assay [4].
In the case of `CNc1ncc(-c2ccc3ncc4c(c3c2)n(-c2cn(C)nc2C)c(=O)n4C)cn1` [Example 80.1, 1-(1,3-Dimethyl-1H-pyrazol-4-yl)-3-methyl-8-(2-methylamino-pyrimidin-5-yl)-1,3-dihydro-imidazo[4,5-c]quinolin-2-one], the IC50 amounted to 13 nM on mTOR; 5 nM in assay [1]; 13 nM in assay [2]; 13 nM in assay [3]; 3 nM in assay [4].
On to `CCNc1cc(-c2ccc3ncc4c(c3c2)n(-c2c(C)noc2C)c(=O)n4C)cnc1Cl` [Example 153.3, 8-(6-Chloro-5-ethylamino-pyridin-3-yl)-1-(3,5-dimethyl-isoxazol-4-yl)-3-methyl-1,3-dihydro-imidazo[4,5-c]quinolin-2-one], for which the IC50 at mTOR was found to be 665 nM; in assay [1], 112 nM; in assay [2], 34 nM; in assay [3], 55 nM; in assay [4], 36 nM.
With `CCC(O)(CC)c1cncc(-c2ccc3ncc4c(c3c2)n(-c2cn(C)nc2C)c(=O)n4C)c1` [Example 216, 1-(1,3-Dimethyl-1H-pyrazol-4-yl)-8-[5-(1-ethyl-1-hydroxy-propyl)-pyridin-3-yl]-3-methyl-1,3-dihydro-imidazo[4,5-c]quinolin-2-one], the IC50 on mTOR is 4 nM; in assay [1], 56 nM; in assay [2], 10 nM; in assay [3] it was 57 nM; in assay [4], under 0.5 nM.

For the origin of these results see patent publication US20140005163A1 (NOVARTIS AG, priority 2010, published 2014).
